Results from ChEMBL document CHEMBL1141677, “Synthesis and structure-antibacterial activity of triazolyl oxazolidinones containing long chain acyl moiety” (2008).
In brackets after ≈: the same amount, converted by molar mass.

Key:
Assay type in all cases: functional
Escherichia coli = assay: Antibacterial activity against Escherichia coli ATCC 25922 after 18 hrs by agar dilution method; settings: ATCC 25922, 18 h
Staphylococcus aureus [1] = assay: Antibacterial activity against Staphylococcus aureus ATCC 25923 after 18 hrs by agar dilution method in presence of 50% human plasma; settings: ATCC 25923, Plasma
Enterococcus [2] = assay: Antibacterial activity against vancomycin-sensitive Enterococcus after 18 hrs by agar dilution method
Streptococcus pneumoniae = assay: Antibacterial activity against penicillin-resistant Streptococcus pneumoniae after 18 hrs by agar dilution method
Staphylococcus aureus [3] = assay: Antibacterial activity against Staphylococcus aureus ATCC 25923 after 18 hrs by agar dilution method; settings: for MIC: Staphylococcus aureus, ATCC 25923, 18 h
Staphylococcus [4] = assay: Antibacterial activity against methicillin-susceptible coagulase-negative Staphylococcus clinical isolate after 18 hrs by agar dilution method
Enterococcus [5] = assay: Antibacterial activity against vancomycin-resistant Enterococcus after 18 hrs by agar dilution method
Staphylococcus [6] = assay: Antibacterial activity against methicillin-resistant coagulase-negative Staphylococcus clinical isolate after 18 hrs by agar dilution method
Moraxella catarrhalis = assay: Antibacterial activity against Moraxella catarrhalis clinical isolate after 18 hrs by agar dilution method
Staphylococcus aureus [7] = assay: Antibacterial activity against methicillin-susceptible Staphylococcus aureus clinical isolate after 18 hrs by agar dilution method
Staphylococcus aureus [8] = assay: Antibacterial activity against methicillin-resistant Staphylococcus aureus clinical isolate after 18 hrs by agar dilution method; settings: for MIC: Staphylococcus aureus, 18 h
Haemophilus influenzae = assay: Antibacterial activity against Haemophilus influenzae clinical isolate after 18 hrs by agar dilution method

| Compound | MIC (Escherichia coli) [µg/mL] | MIC (Staphylococcus aureus [1]) [µg/mL] | MIC (Enterococcus [2]) [µg/mL] | MIC (Streptococcus pneumoniae) [µg/mL] | MIC (Staphylococcus aureus [3]) [µg/mL] | MIC (Staphylococcus [4]) [µg/mL] | MIC (Enterococcus [5]) [µg/mL] | MIC (Staphylococcus [6]) [µg/mL] | MIC (Moraxella catarrhalis) [µg/mL] | MIC (Staphylococcus aureus [7]) [µg/mL] | MIC (Staphylococcus aureus [8]) [µg/mL] | MIC (Haemophilus influenzae) [µg/mL] | -logMIC (Staphylococcus aureus [3]) | -logMIC (Staphylococcus aureus [8]) |
| --- | --- | --- | --- | --- | --- | --- | --- | --- | --- | --- | --- | --- | --- | --- |
| O=C1O[C@@H](Cn2ccnn2)CN1c1ccc(N2CCOCC2)c(F)c1 | ≥ 8 | 1 | 0.5 (≈ 1.44 µM) | 0.5 (≈ 1.44 µM) | 1 (≈ 2.88 µM) | 0.5 (≈ 1.44 µM) | 1 (≈ 2.88 µM) | 0.5 (≈ 1.44 µM) | ≥ 8 | 0.5 (≈ 1.44 µM) | 0.5 (≈ 1.44 µM) | ≥ 8 | – | – |
| CCCCCCCCCCC(=O)N1CCN(c2ccc(N3C[C@H](Cn4ccnn4)OC3=O)cc2F)CC1 | ≥ 8 | > 16 | > 16 | > 16 | > 16 | > 16 | – | – | ≥ 8 | > 16 | – | ≥ 8 | 1.51 | – |
| O=C(CC1CC2CCC1C2)N1CCN(c2ccc(N3C[C@H](Cn4ccnn4)OC3=O)cc2F)CC1 (some centres undefined) | ≥ 8 | > 16 | 2 (≈ 4.14 µM) | 4 (≈ 8.29 µM) | 4 (≈ 8.29 µM) | 2 (≈ 4.14 µM) | 4 (≈ 8.29 µM) | 2 (≈ 4.14 µM) | ≥ 8 | 2 (≈ 4.14 µM) | 2 (≈ 4.14 µM) | ≥ 8 | 2.08 | 2.38 |
| CCC(=O)N1CCN(c2ccc(N3C[C@H](Cn4ccnn4)OC3=O)cc2F)CC1 | ≥ 8 | 1 | 0.5 (≈ 1.24 µM) | 1 (≈ 2.48 µM) | 1 (≈ 2.48 µM) | 0.12 (≈ 0.298 µM) | 1 (≈ 2.48 µM) | 1 (≈ 2.48 µM) | ≥ 8 | 1 (≈ 2.48 µM) | 1 (≈ 2.48 µM) | ≥ 8 | 2.6 | 2.6 |
| CC(=O)N1CCN(c2ccc(N3C[C@H](Cn4ccnn4)OC3=O)cc2F)CC1 | ≥ 8 | 1 | 0.5 (≈ 1.29 µM) | 0.5 (≈ 1.29 µM) | 1 (≈ 2.57 µM) | 0.25 (≈ 0.644 µM) | 0.25 (≈ 0.644 µM) | 0.25 (≈ 0.644 µM) | ≥ 8 | 0.5 (≈ 1.29 µM) | 0.25 (≈ 0.644 µM) | ≥ 8 | 2.59 | 3.19 |
| CCCCCCCC(=O)N1CCN(c2ccc(N3C[C@H](Cn4ccnn4)OC3=O)cc2F)CC1 | ≥ 8 | > 16 | 4 (≈ 8.46 µM) | > 16 | 8 (≈ 16.9 µM) | 2 (≈ 4.23 µM) | 4 (≈ 8.46 µM) | 2 (≈ 4.23 µM) | ≥ 8 | 4 (≈ 8.46 µM) | 2 (≈ 4.23 µM) | ≥ 8 | 2.07 | 2.37 |
| CCCCCCC(=O)N1CCN(c2ccc(N3C[C@H](Cn4ccnn4)OC3=O)cc2F)CC1 | ≥ 8 | > 16 | 4 (≈ 8.72 µM) | 4 (≈ 8.72 µM) | 4 (≈ 8.72 µM) | 1 (≈ 2.18 µM) | 4 (≈ 8.72 µM) | 2 (≈ 4.36 µM) | ≥ 8 | 2 (≈ 4.36 µM) | 2 (≈ 4.36 µM) | ≥ 8 | 2.06 | 2.36 |
| CC(C)C(=O)N1CCN(c2ccc(N3C[C@H](Cn4ccnn4)OC3=O)cc2F)CC1 | ≥ 8 | 2 | 1 (≈ 2.4 µM) | 0.5 (≈ 1.2 µM) | 2 (≈ 4.8 µM) | 1 (≈ 2.4 µM) | 1 (≈ 2.4 µM) | 1 (≈ 2.4 µM) | ≥ 8 | 1 (≈ 2.4 µM) | 1 (≈ 2.4 µM) | ≥ 8 | 2.32 | 2.62 |
| O=C(C1CCCCC1)N1CCN(c2ccc(N3C[C@H](Cn4ccnn4)OC3=O)cc2F)CC1 | ≥ 8 | 4 | 1 (≈ 2.19 µM) | 0.5 (≈ 1.1 µM) | 4 (≈ 8.76 µM) | 1 (≈ 2.19 µM) | 1 (≈ 2.19 µM) | 1 (≈ 2.19 µM) | ≥ 8 | 1 (≈ 2.19 µM) | 1 (≈ 2.19 µM) | ≥ 8 | 2.06 | 2.66 |
| CCCCCCCCCCCCCCCCCC(=O)N1CCN(c2ccc(N3C[C@H](Cn4ccnn4)OC3=O)cc2F)CC1 | ≥ 8 | > 16 | > 16 | > 16 | > 16 | > 16 | – | – | ≥ 8 | > 16 | – | ≥ 8 | 1.58 | – |
| CCCCCCCCCCCCCCCC(=O)N1CCN(c2ccc(N3C[C@H](Cn4ccnn4)OC3=O)cc2F)CC1 | ≥ 8 | > 16 | > 16 | > 16 | > 16 | > 16 | – | – | ≥ 8 | > 16 | – | ≥ 8 | 1.56 | – |
| CCCCCCCCCC(=O)N1CCN(c2ccc(N3C[C@H](Cn4ccnn4)OC3=O)cc2F)CC1 | ≥ 8 | > 16 | > 16 | > 16 | > 16 | > 16 | – | – | ≥ 8 | > 16 | – | ≥ 8 | 1.5 | – |
| O=C(C1CCCC1)N1CCN(c2ccc(N3C[C@H](Cn4ccnn4)OC3=O)cc2F)CC1 | ≥ 8 | 4 | 1 (≈ 2.26 µM) | 1 (≈ 2.26 µM) | 2 (≈ 4.52 µM) | 1 (≈ 2.26 µM) | 1 (≈ 2.26 µM) | 1 (≈ 2.26 µM) | ≥ 8 | 1 (≈ 2.26 µM) | 1 (≈ 2.26 µM) | ≥ 8 | 2.34 | 2.65 |
| CCCCCCCCC(=O)N1CCN(c2ccc(N3C[C@H](Cn4ccnn4)OC3=O)cc2F)CC1 | ≥ 8 | > 16 | 8 (≈ 16.4 µM) | > 16 | > 16 | 4 (≈ 8.22 µM) | 8 (≈ 16.4 µM) | 4 (≈ 8.22 µM) | ≥ 8 | 8 (≈ 16.4 µM) | 4 (≈ 8.22 µM) | ≥ 8 | 1.78 | 2.09 |
| CCCCCC(=O)N1CCN(c2ccc(N3C[C@H](Cn4ccnn4)OC3=O)cc2F)CC1 | ≥ 8 | > 16 | 4 (≈ 9 µM) | 2 (≈ 4.5 µM) | 4 (≈ 9 µM) | 1 (≈ 2.25 µM) | 4 (≈ 9 µM) | 1 (≈ 2.25 µM) | ≥ 8 | 4 (≈ 9 µM) | 2 (≈ 4.5 µM) | ≥ 8 | 2.05 | 2.35 |
| CCCCCCCCCCCCCC(=O)N1CCN(c2ccc(N3C[C@H](Cn4ccnn4)OC3=O)cc2F)CC1 | ≥ 8 | > 16 | > 16 | > 16 | > 16 | > 16 | – | – | ≥ 8 | > 16 | – | ≥ 8 | 1.54 | – |
| CC(=O)NC[C@H]1CN(c2ccc(N3CCOCC3)c(F)c2)C(=O)O1 [LINEZOLID] | ≥ 8 | – | 0.5 (≈ 1.48 µM) | – | – | 0.25 (≈ 0.741 µM) | 2 (≈ 5.93 µM) | 1 (≈ 2.96 µM) | ≥ 8 | 1 (≈ 2.96 µM) | 0.5 (≈ 1.48 µM) | ≥ 8 | – | – |
| CN[C@H](CC(C)C)C(=O)N[C@H]1C(=O)N[C@@H](CC(N)=O)C(=O)N[C@H]2C(=O)N[C@H]3C(=O)N[C@H](C(=O)N[C@H](C(=O)O)c4cc(O)cc(O)c4-c4cc3ccc4O)[C@H](O)c3ccc(c(Cl)c3)Oc3cc2cc(c3O[C@@H]2O[C@H](CO)[C@@H](O)[C@H](O)[C@H]2O[C@H]2C[C@](C)(N)[C@H](O)[C@H](C)O2)Oc2ccc(cc2Cl)[C@H]1O [VANCOMYCIN] | ≥ 8 | – | 0.25 (≈ 0.173 µM) | 0.5 (≈ 0.345 µM) | – | 1 (≈ 0.69 µM) | > 64 | 1 (≈ 0.69 µM) | ≥ 8 | – | – | ≥ 8 | – | – |
